Measured values from patent US20180153850A1, “COMPOSITIONS AND METHODS FOR TREATMENT OF CANCER” (The Regents of the University of California, priority 2015, published 2018).
Read-outs that look alike come from different tables or passages of the source.

Legend:
[1] = system: C4-2B tumors; assay: In vivo tumorigenesis assay, C4-2B tumors; design: species or system SCID mice; details: docetaxel 10 mg/kg once a week
Procedure: (§1) Tumor sizes were measured twice a week. *, P<0.05. **, P<0.01. DTX, docetaxel, Bic, bicalutamide.
(§2) Tumor tissues were harvested after 3 weeks of treatment.

[2] = system: TaxR tumors; assay: In vivo tumorigenesis assay, TaxR tumors; design: species or system SCID mice; details: docetaxel 10 mg/kg i.p. once a week; bicalutamide 25 mg/kg p.o. 5 days a week; 3 weeks
Procedure: as §1, §2

[3] = system: DU145-DTXR cells; assay: Cell growth assay in DU145-DTXR cells; assay type: cell-based; details: for IC50: 24 h; for docetaxel resistance in DU145-DTXR cells: 10 nM docetaxel with 0.5 μM elacridar or 20 μM bicalutamide or enzalutamide, 48 hrs
Procedure: (§3) Top panel, fluorescent and phase contrast pictures are shown. Lower panel, rhodamine intake ratio. […] Cell numbers were counted after 24 hrs of treatment. […] Cell numbers were counted after 24 hrs of treatment. […] Tumor sizes were measured twice a week.
DU145-DTXR cells were plated in 12-well plate at 1×10^5 cells per well. […] FIG. 8A: Cell numbers were counted. FIG. 8B: Cell pictures were taken to show the cell survival inhibition.
DU145-DTXR cells were plated in 12-well plate at 1×10^5 cells per well. […] Cell numbers were counted (top panel: bicalutamide; bottom panel: enzalutamide). FIG. 9B: DU145 parental cells and DU145-DTX cells were plated in 12-well plate at 1×10^5 cells per well. […] Cell numbers were counted.
(§4) Cells were seeded in 12-well plates at a density of 1×10^5 cells per well. Cells were treated and total cell numbers were counted using a Coulter cell counter.

[4] = system: TaxR cells; assay: Cell growth assay in TaxR cells; assay type: cell-based; details: 24 h, read-out: IC50 value of docetaxel, TaxR cells
Procedure: Top panel, fluorescent and phase contrast pictures are shown. Lower panel, rhodamine intake ratio. […] Cell numbers were counted after 24 hrs of treatment.
Fluorescent and phase contrast pictures are shown. Lower panel is the rhodamine intake ratio. […] Cell numbers were counted after 24 hrs of treatment. […] The numbers of colonies were counted after 3 weeks.
as §4

[5] = system: DU145 cells; assay: Cell growth assay in parental DU145 cells; assay type: cell-based; details: Homo sapiens, DU-145, read-out: IC50 to docetaxel, 24 hrs
Procedure: as §3, §4

[6] = biological target: ABCB1 (P-gp) ATPase (Homo sapiens, UniProt P08183); assay: in vitro
[7] = biological target: ABCB1 (Homo sapiens, UniProt P08183); details: 48 h, 20 μmol/L
Procedure: (§5) FIG. 1A: C4-2B and TaxR cells were seeded in 6-well plates at a density of 2×10^5 cells per well. […] Cells were incubated with 1 μg/mL Rhodamine 123 for another 4 hrs. The cells were then washed 3 times with 1×PBS. Fluorescence was detected at an excitation wavelength of 480 nm and an emission wavelength of 534 nm. […] Lower panel, rhodamine intake ratio.
(§6) Cells were incubated with 1 μg/mL Rhodamine 123 for another 4 hrs. The cells were then washed three times with 1×PBS. Fluorescence was detected at an excitation wavelength of 480 nm and an emission wavelength of 534 nm. […] Lower panel is the rhodamine intake ratio.
(§7) Cells were seeded in 6-well plates at a density of 2×10^5 cells per well. […] The cells were then washed three times with PBS. […] Each experiment was repeated at least 3 times.

[8] = biological target: ABCB1 (P-glycoprotein, MDR1) (Homo sapiens, UniProt P08183); assay: in vitro
ABCB1 (P-glycoprotein, MDR1), sequence (P08183 whole entry): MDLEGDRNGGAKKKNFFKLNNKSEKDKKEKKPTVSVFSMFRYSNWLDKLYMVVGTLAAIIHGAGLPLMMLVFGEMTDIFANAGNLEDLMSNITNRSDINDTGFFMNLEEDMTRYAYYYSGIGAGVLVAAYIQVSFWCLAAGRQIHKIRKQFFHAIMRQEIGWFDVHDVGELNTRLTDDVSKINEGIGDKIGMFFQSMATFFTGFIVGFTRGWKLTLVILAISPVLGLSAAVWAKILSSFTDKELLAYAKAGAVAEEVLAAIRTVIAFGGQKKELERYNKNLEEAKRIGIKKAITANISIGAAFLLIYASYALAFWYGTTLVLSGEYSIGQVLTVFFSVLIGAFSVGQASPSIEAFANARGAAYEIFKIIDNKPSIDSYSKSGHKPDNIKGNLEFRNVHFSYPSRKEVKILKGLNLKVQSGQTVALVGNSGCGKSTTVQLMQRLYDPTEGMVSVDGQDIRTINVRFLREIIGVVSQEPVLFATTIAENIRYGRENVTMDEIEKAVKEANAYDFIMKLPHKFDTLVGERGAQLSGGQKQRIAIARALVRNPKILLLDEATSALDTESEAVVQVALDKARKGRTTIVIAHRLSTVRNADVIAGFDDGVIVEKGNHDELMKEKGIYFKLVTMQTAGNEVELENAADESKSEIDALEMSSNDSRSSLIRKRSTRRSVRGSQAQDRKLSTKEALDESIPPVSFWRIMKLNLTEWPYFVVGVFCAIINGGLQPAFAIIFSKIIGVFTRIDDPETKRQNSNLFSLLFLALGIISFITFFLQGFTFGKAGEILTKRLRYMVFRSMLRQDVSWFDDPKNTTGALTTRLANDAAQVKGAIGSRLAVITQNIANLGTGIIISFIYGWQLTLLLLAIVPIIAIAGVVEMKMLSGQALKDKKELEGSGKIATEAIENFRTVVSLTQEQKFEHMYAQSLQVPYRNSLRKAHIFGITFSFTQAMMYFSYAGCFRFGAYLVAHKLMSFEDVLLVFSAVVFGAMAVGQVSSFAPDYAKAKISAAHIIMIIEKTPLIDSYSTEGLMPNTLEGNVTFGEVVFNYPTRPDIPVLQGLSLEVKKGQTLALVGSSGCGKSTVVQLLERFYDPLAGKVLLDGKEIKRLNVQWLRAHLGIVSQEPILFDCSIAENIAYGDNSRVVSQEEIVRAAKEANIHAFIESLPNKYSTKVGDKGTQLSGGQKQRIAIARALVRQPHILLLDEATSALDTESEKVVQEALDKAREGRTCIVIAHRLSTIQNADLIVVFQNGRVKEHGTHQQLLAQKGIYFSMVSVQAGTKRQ
Procedure: as §5, §6, §7

ABCB1 (P-gp) ATPase, sequence (P08183 whole entry): as above
ABCB1, sequence (P08183 whole entry): as above

| SMILES | C4-2B tumor growth [1] | tumor growth of TaxR cells [2] | effect on growth of DU145-DTXR cells ([3]; 10 nM docetaxel, 20 μM bicalutamide, alone or combined, 24 hrs) | IC50 ([3]; read-out: IC50 to docetaxel) | IC50 ([3]; read-out: IC50 value of docetaxel) | IC50 ([4]; docetaxel alone, 24 hrs) | IC50 ([4]; in combination with 20 μM bicalutamide, 24 hrs) | IC50 ([4]; in combination with 20 μM enzalutamide, 24 hr) | IC50 [5] | docetaxel resistance in DU145-DTXR cells [3] | inhibition at 40 min, 40 µM [6] | rhodamine intake [7] | inhibition at 24 h, 20 μM [8] | inhibition at 40 min, 2.5 µM [6] |
| --- | --- | --- | --- | --- | --- | --- | --- | --- | --- | --- | --- | --- | --- | --- |
| CC(=O)O[C@@]12CO[C@@H]1C[C@H](O)[C@@]1(C)C(=O)[C@H](O)C3=C(C)[C@@H](OC(=O)[C@H](O)[C@@H](NC(=O)OC(C)(C)C)c4ccccc4)C[C@@](O)([C@@H](OC(=O)c4ccccc4)[C@H]21)C3(C)C [docetaxel] | significantly repressed | Neither docetaxel nor bicalutamide treatment alone inhibited tumor growth | only minimal effects | 52 nM | ~7.5 nM | 140 nM | ~5 nM | ~3 nM | 4.3 nM | – | – | – | – | – |
| CNC(=O)c1ccc(N2C(=S)N(c3ccc(C#N)c(C(F)(F)F)c3)C(=O)C2(C)C)cc1F [enzalutamide] | – | – | – | – | – | – | – | – | – | reversal of docetaxel resistance | 60% | 66.2% | ~60% | – |
| COc1cc2c(cc1OC)CN(CCc1ccc(NC(=O)c3cccc4c(=O)c5cccc(OC)c5[nH]c34)cc1)CC2 [elacridar] | – | – | – | – | – | – | – | – | – | reversal of docetaxel resistance | – | – | – | 69% |
